Data on one molecule can be found in BindingDB's records for doi:10.1021/jm058041z (University of Würzburg, 2005).

The assay in a line: Inhibition of acetylcholinesterase.

In general, IC50 refers to the concentration needed to halve the response being measured. The molecule `Nc1c2c(nc3c(CO)cccc13)CCCC2` [9-amino-5,6,7,8-tetrahydroacridin-4yl)methano] had an IC50 of 125 nM.
